This is an account of results in patent US20250090540A1, “PI3K-ALPHA INHIBITORS AND METHODS OF USE THEREOF” (Relay Therapeutics, Inc., priority 2021, published 2025).

Test system in the first test: not listed separately
The experiment in a line: cells. Particulars: Homo sapiens, MCF-10A, read-out: MCF10A I50.
Regarding `C[C@H](NC(=O)c1cnc(N2CCOc3ccccc32)c(NC(=O)c2csc3ccccc23)c1)c1ccncc1` (stereo in doubt) [I-315], the IC50 was in the range of 10 to 36 µM.

Regarding `Cc1ccccc1Nc1ncc(C(=O)NCC2CCCO2)cc1NC(=O)c1csc2ccccc12` (stereo not drawn) [I-195], the IC50 is 10 to 36 µM.

`Cc1ccccc1Nc1ncc(C(=O)N[C@@H]2CC(=O)N(C)C2)cc1NC(=O)c1csc2ccccc12` (single isomer, unassigned) [I-435]: the IC50 lay within 5 to 10 µM.

Regarding `O=C(NC1CC(F)(F)C1)c1cnc(N2CCOc3ccccc32)c(NC(=O)c2csc3ccccc23)c1` [I-347], the IC50 was 1 to 5 µM.

With `Cc1ccccc1Nc1ncc(C(=O)N[C@H]2COc3ccccc3C2)cc1NC(=O)c1csc2ccccc12` [I-619], the IC50 lay within 36 to 100 µM.

The next test deals with H1047R PIK3CA enzyme (Homo sapiens, UniProt P42336, H1047R). The experiment in a line: ADP-Glo Biochemical PIK3CA Kinase Assay.
H1047R PIK3CA enzyme, sequence (P42336 whole entry H1047R): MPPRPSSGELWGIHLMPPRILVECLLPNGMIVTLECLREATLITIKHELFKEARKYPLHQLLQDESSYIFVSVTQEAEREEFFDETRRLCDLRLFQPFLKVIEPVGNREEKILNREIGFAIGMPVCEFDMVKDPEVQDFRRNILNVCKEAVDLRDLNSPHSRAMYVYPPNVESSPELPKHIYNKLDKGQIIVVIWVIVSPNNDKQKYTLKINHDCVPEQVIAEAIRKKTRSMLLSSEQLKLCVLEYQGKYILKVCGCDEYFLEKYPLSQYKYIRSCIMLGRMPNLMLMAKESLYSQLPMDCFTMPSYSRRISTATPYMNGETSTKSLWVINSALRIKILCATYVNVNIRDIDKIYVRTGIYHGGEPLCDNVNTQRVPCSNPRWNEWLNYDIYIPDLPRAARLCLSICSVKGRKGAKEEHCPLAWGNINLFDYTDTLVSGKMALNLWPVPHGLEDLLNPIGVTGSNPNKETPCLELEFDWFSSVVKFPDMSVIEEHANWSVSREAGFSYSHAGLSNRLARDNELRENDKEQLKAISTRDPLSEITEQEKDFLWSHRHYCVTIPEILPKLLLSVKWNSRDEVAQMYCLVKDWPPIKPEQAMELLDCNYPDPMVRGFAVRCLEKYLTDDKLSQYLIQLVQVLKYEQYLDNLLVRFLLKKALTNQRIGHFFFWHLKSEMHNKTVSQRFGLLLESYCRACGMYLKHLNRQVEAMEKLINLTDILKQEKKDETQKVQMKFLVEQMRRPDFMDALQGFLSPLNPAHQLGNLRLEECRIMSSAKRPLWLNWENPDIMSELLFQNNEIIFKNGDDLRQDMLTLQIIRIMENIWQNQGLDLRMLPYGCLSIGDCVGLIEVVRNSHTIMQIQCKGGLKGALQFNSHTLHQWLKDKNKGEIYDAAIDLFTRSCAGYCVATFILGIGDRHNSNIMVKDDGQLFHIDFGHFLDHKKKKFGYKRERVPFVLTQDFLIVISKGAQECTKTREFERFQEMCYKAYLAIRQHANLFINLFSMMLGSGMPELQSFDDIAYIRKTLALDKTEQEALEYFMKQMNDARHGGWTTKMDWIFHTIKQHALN
H1047R PIK3CA enzyme, sequence (P27986 whole entry partner): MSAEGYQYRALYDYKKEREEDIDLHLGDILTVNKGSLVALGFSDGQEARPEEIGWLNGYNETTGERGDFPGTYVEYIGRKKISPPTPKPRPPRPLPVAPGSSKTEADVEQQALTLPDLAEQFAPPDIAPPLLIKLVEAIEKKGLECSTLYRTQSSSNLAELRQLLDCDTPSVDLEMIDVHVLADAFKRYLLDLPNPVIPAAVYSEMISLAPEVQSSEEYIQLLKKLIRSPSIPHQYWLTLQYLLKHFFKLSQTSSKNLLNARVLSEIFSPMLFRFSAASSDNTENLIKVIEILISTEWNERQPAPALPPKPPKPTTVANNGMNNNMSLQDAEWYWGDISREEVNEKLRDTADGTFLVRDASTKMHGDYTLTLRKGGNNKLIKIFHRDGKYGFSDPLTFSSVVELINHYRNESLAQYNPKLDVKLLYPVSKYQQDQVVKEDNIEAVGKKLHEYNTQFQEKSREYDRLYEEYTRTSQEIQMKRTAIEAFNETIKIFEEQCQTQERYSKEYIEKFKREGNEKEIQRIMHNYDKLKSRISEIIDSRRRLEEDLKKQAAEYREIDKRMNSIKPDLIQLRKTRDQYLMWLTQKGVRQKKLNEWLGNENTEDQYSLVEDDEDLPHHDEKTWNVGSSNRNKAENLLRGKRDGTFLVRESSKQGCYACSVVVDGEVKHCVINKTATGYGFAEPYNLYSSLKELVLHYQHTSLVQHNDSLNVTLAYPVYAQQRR
Conditions: not given
(In general: In ADP-Glo the light output rises with the ADP produced.)
Molecule `C[C@H](NC(=O)c1cnc(N2CCOc3ccccc32)c(NC(=O)c2csc3ccccc23)c1)c1ccncc1` (stereo in doubt) [I-315] gave an IC50 of 0.5 to 1 µM.

Molecule `Cc1ccccc1Nc1ncc(C(=O)NCC2CCCO2)cc1NC(=O)c1csc2ccccc12` (stereo not drawn) [I-195] yielded an IC50 of 0.1 to 0.5 µM.

`O=C(NC1CC(F)(F)C1)c1cnc(N2CCOc3ccccc32)c(NC(=O)c2csc3ccccc23)c1` [I-347] yielded an IC50 of 0.1 to 0.5 µM.

Turning to `O=C(Nc1cccnc1NC1CCCCC1)c1csc2ccccc12` [I-153], the IC50 fell in the range of 10 to 100 µM.

Turning to `CNC(=O)c1cnc(Nc2ccccc2C)c(NCC2CC2)c1` [I-34], the IC50 was 10 to 100 µM.

Regarding `CNC(=O)c1cnc(Nc2ccccc2C)c(NC(=O)c2csc(C)n2)c1` [I-242], the IC50 is 10 to 100 µM.

On to `CNC(=O)c1cnc(Nc2ccccc2C)c(NC(=O)c2cnc3ccccc3c2)c1` [I-176], for which the IC50 was 10 to 100 µM.

With `O=C(Nc1cc(-c2ccc3ncnn3c2)cnc1NC(CO)CCO)c1cc(F)cc(C(F)(F)F)c1` (stereo not drawn) [I-818], the IC50 lay within 10 to 100 µM.

In turn, `O=C(NC1CS(=O)(=O)C1)c1cnc(N2C[C@H]3C[C@H]3c3ccccc32)c(NC(=O)c2csc3ccccc23)c1` (racemic) [I-255] yielded an IC50 of 0.5 to 1 µM.

The molecule `CNC(=O)c1cnc(Nc2ccccc2C)c(NC(=O)c2cc(F)cc(F)c2)c1` [I-141] yielded an IC50 of 1 to 10 µM.

`CNC(=O)c1cnc(Nc2ccccc2C)c(NC(=O)c2cc(F)c3cc[nH]c3c2)c1` [I-394]: the IC50 fell in the range of 10 to 100 µM.

Molecule `Cc1ccccc1Nc1ncc(-c2cnn(C)c2)cc1NC(=O)N1CCOc2ccccc21` [I-92] had an IC50 of 10 to 100 µM.

With `C[C@@H](NC(=O)c1cnc(N2CCCOc3ccccc32)c(NC(=O)c2csc3ccccc23)c1)c1cccnc1` (racemic) [I-278], the IC50 lay within 1 to 10 µM.

Regarding `CNC(=O)c1cnc(Nc2ccccc2C)c(NC(=O)[C@]23C[C@H]4C[C@H](C[C@H](C4)C2)C3)c1` [I-171], the IC50 fell in the range of 1 to 10 µM.

`Cc1ccccc1Nc1ncc(C(=O)O)cc1NC(=O)c1cc(F)cc(C(F)(F)F)c1` [I-17]: the IC50 lay in the range of 1 to 10 µM.

The molecule `CNC(=O)c1cnc(Nc2ccccc2C)c(NC(=O)c2oc(C)nc2C)c1` [I-18] yielded an IC50 of 1 to 10 µM.

In turn, `Cc1ccccc1Nc1ncc(-c2cnn(C)c2)cc1NC(=O)c1cc(F)cc(Br)c1` [I-96] had an IC50 of 0.5 to 1 µM.

On to `CNC(=O)c1cnc(Nc2cccc(C)c2)c(NC(=O)c2cc(F)cc(C(F)(F)F)c2)c1` [I-39], for which the IC50 was 1 to 10 µM.

Turning to `CNC(=O)c1cnc(NCc2nccn2C)c(NC(=O)c2cc(F)cc(C(F)(F)F)c2)c1` [I-185], the IC50 lay within 10 to 100 µM.

`CCn1nc(C(=O)Nc2cc(C(=O)NC)cnc2Nc2ccccc2C)c2ccccc21` [I-375] displayed an IC50 of 10 to 100 µM.

`CNC(=O)c1cnc(Nc2ccccc2C)c(NC(=O)CC2COc3ccccc3O2)c1` (stereo not drawn) [I-381] returned an IC50 of 10 to 100 µM.

On to `Cc1ccccc1Nc1ncc(-c2cnn(C)c2)cc1NC(=O)c1ccc(F)c(C(F)(F)F)c1` [I-102], for which the IC50 is 1 to 10 µM.

As for `CNC(=O)c1cnc(Nc2ccccc2C)c(NC(=O)Cc2cn(C)c3ccccc23)c1` [I-167], the IC50 is 10 to 100 µM.

Take `CNC(=O)c1cnc(NC2CCCC2)c(NC(=O)c2cc(F)cc(C(F)(F)F)c2)c1` [I-360]: the IC50 was in the range of 10 to 100 µM.

In the case of `CNC(=O)c1cnc(Nc2cccc(F)c2)c(NC(=O)c2cc(F)cc(C(F)(F)F)c2)c1` [I-29], the IC50 fell in the range of 10 to 100 µM.

Molecule `Cc1ccccc1Nc1ncc(-c2cnn(C)c2)cc1NC(=O)c1ccc(C(F)(F)F)cc1` [I-117] had an IC50 of 10 to 100 µM.

`O=C(Nc1cc(C(=O)NC2CC(F)(F)C2)cnc1N1C(=O)NCc2ccccc21)c1cc(F)cc(C(F)(F)F)c1` [I-338] gave an IC50 of 1 to 10 µM.

Regarding `Cc1ccccc1Nc1ncc(C(=O)NC2CS(=O)(=O)C2)cc1NC(=O)c1cc2ccccc2o1` [I-357], the IC50 fell in the range of 10 to 100 µM.

As to `CNC(=O)c1cnc(Nc2ccccc2C)c(NC(=O)c2cc3ccccc3cn2)c1` [I-184], the IC50 was in the range of 10 to 100 µM.

As for `Cc1ccc(Nc2ncc(C(=O)NCc3nccs3)cc2NC(=O)c2csc3ccccc23)cc1` [I-225], the IC50 was 1 to 10 µM.

For the molecule `Cc1ccccc1Nc1ncc(-c2cnn(C)c2)cc1NC(=O)c1ccc(OC(F)(F)F)cc1` [I-122], the IC50 is 10 to 100 µM.

Turning to `Cn1cc(NC(=O)c2csc3ccccc23)c(N2CCOc3ccccc32)cc1=O` [I-272], the IC50 lay in the range of 1 to 10 µM.

`CNC(=O)c1cnc(Nc2ccccc2C)c(NC(=O)C2CCSc3ccccc32)c1` (stereo not drawn) [I-260] displayed an IC50 of 10 to 100 µM.

As to `Cc1ccccc1N[C@H]1CCN(C(=O)CC2CCOCC2)C[C@H]1C(=O)Nc1cc(F)cc(C(F)(F)F)c1` (racemic) [I-251], the IC50 lay within 10 to 100 µM.

In the case of `Cc1ccccc1Nc1ncc(-c2cn[nH]c2)cc1NC(=O)c1cc(F)cc(C(F)(F)F)c1` [I-81], the IC50 is 1 to 10 µM.

Molecule `CNC(=O)c1cnc(Nc2ccccc2C)c(NC(=O)c2csc(Cl)c2Cl)c1` [I-213] showed an IC50 of 10 to 100 µM.

`CNC(=O)c1cnc(NCCOC)c(NC(=O)c2cc(F)cc(C(F)(F)F)c2)c1` [I-358] displayed an IC50 of 10 to 100 µM.

Molecule `Cc1ccccc1[C@@H]1Nc2ccccc2[C@H]1CNC(=O)c1cc(F)cc(C(F)(F)F)c1` (racemic) [I-808, 3-fluoro-N-(((2R,3S)-2-(o-tolyl)indolin-3-yl)methyl)-5-(trifluoromethyl)benzamide] came in with an IC50 of 10 to 100 µM.

`CNC(=O)c1cnc(Nc2ccccc2C)c(NC(=O)C2(c3cccnc3)CC2)c1` [I-334]: the IC50 was in the range of 10 to 100 µM.

For the molecule `Cc1ccccc1Nc1ncc(-c2cnn(C)c2)cc1NC(=O)c1ccc2[nH]ncc2c1` [I-108], the IC50 lay within 10 to 100 µM.

The molecule `Cc1ccccc1Nc1ncc(-c2cnn(C)c2)cc1NC(=O)c1ccc(C#N)cc1` [I-106] gave an IC50 of 10 to 100 µM.

`Cc1ccccc1N[C@H]1CCN(C(=O)OC(C)(C)C)C[C@@H]1C(=O)Nc1cc(F)cc(C(F)(F)F)c1` (racemic) [I-156] gave an IC50 of 10 to 100 µM.

With `CNC(=O)c1cnc(Nc2ccccc2C)c(NC(=O)c2nccc3ccccc23)c1` [I-233], the IC50 fell in the range of 10 to 100 µM.

Still in this test, the particulars now being: ADP-Glo biochemical PIK3CA kinase assay.
Take `Cc1ccccc1Nc1ncc(C(=O)N[C@@H]2CC(=O)N(C)C2)cc1NC(=O)c1csc2ccccc12` (single isomer, unassigned) [I-435]: the IC50 was at most 0.1 µM.

Molecule `Cc1ccccc1Nc1ncc(C(=O)N[C@H]2COc3ccccc3C2)cc1NC(=O)c1csc2ccccc12` [I-619] returned an IC50 of 0.1 to 0.5 µM.

In the case of `CC(C)(O)c1cnc(Nc2cc(F)ccc2Cl)c(NC(=O)c2cc(F)cc(C(F)(F)F)c2)c1` [I-782], the IC50 was 1 to 10 µM.

In turn, `CNC(=O)c1cnc(Nc2ccccc2C)c(NC(=O)c2ccc3c(cnn3C)c2)c1` [I-431] yielded an IC50 of 10 to 100 µM.

Molecule `Cc1ccccc1Nc1ncc(C(=O)N2CC(C)(O)C2)cc1NC(=O)c1csc2ccccc12` [I-620] gave an IC50 of 1 to 10 µM.

In the case of `CNC(=O)c1cnc(Nc2ccccc2C)c(NC(=O)CCc2cc(Cl)ccc2Cl)c1` [I-517], the IC50 is 10 to 100 µM.

Regarding `CC#CCC(C(=O)Nc1cc(C(=O)NC)cnc1Nc1ccccc1C)c1ccccc1` (stereo not drawn) [I-446], the IC50 was 10 to 100 µM.

Molecule `CNC(=O)c1cnc(Nc2ccccc2C)c(NC(=O)CCc2cc(F)ccc2Br)c1` [I-497] displayed an IC50 of 10 to 100 µM.

In turn, `Cc1cc(NC(=O)c2cc(F)cc(C(F)(F)F)c2)n(-c2ccccc2F)n1` [I-789] showed an IC50 of 1 to 10 µM.

`CNC(=O)c1cnc(Nc2ccccc2C)c(NC(=O)c2n[nH]c3cccc(F)c23)c1` [I-426] had an IC50 of 1 to 10 µM.

`CNC(=O)c1cnc(Nc2ccccc2C)c(NC(=O)c2cnc3cc(F)ccn23)c1` [I-451] displayed an IC50 of 10 to 100 µM.

`Cc1ccccc1Nc1ncc(C(=O)NC2CCOc3ccccc32)cc1NC(=O)c1csc2ccccc12` (stereo not drawn) [I-487] showed an IC50 of 10 to 100 µM.

As for `CNC(=O)c1cnc(Nc2ccccc2C)c(NC(=O)c2cnn3cc(F)ccc23)c1` [I-420], the IC50 is 10 to 100 µM.

The molecule `CNC(=O)c1cnc(Nc2ccccc2C)c(NC(=O)C2CCC(F)(F)CC2)c1` [I-493] yielded an IC50 of 10 to 100 µM.

`COc1nccc(NC(=O)c2cc(F)cc(C(F)(F)F)c2)c1Nc1ccccc1Cl` [I-790] had an IC50 of 1 to 10 µM.

For `CNC(=O)c1cnc(Nc2ccccc2C)c(NC(=O)CC(C)Oc2ccccc2)c1` (stereo not drawn) [I-482], the IC50 is 10 to 100 µM.

The molecule `CNC(=O)c1cnc(Nc2ccccc2C)c(NC(=O)C(C)n2ccccc2=O)c1` (stereo not drawn) [I-428] yielded an IC50 of 10 to 100 µM.

Regarding `CNC(=O)c1cnc(Nc2ccnc3c2ccn3C)c(NC(=O)c2csc3ccccc23)c1` [I-737], the IC50 is 1 to 10 µM.

As for `CNC(=O)c1cnc(Nc2ccccc2C)c(NC(=O)c2ccnc3c(F)cccc23)c1` [I-438], the IC50 fell in the range of 10 to 100 µM.

Turning to `CNC(=O)c1cnc(Nc2ccccc2C)c(NC(=O)c2cc(=O)[nH]c3ccccc23)c1` [I-448], the IC50 was in the range of 10 to 100 µM.

In turn, `CCOC(=O)[C@@H]1CC[C@@H](NC(=O)c2cnc(Nc3ccccc3C)c(NC(=O)c3csc4ccccc34)c2)C1` (racemic) [I-654] displayed an IC50 of 1 to 10 µM.

With `CNC(=O)c1cnc(Nc2ccccc2C)c(NC(=O)c2cc(Cl)n3ccccc23)c1` [I-449], the IC50 lay in the range of 0.1 to 0.5 µM.

`CNC(=O)c1cnc(Nc2ccc3c(c2)OCC3)c(NC(=O)c2csc3ccccc23)c1` [I-738] registered an IC50 of 1 to 10 µM.

Regarding `O=C(Nc1cnccc1-n1cccn1)c1cc(F)cc(C(F)(F)F)c1` [I-781], the IC50 fell in the range of 1 to 10 µM.

Regarding `CNC(=O)c1cnc(Nc2ccccc2C)c(NC(=O)c2ccc(CO)c(F)c2)c1` [I-567], the IC50 lay in the range of 1 to 10 µM.

On to `Cc1ccccc1Nc1ncc(C(=O)NCC2(O)CCCC2)cc1NC(=O)c1csc2ccccc12` [I-562], for which the IC50 was in the range of 0.5 to 1 µM.

On to `CNC(=O)c1cnc(Nc2ccccc2C)c(NC(=O)c2cc(Cl)nc(C(F)(F)F)c2)c1` [I-762], for which the IC50 was 0.5 to 1 µM.

For `CNC(=O)c1cnc(Nc2ccccc2C)c(NC(=O)c2coc3c(F)cc(Cl)cc23)c1` [I-766], the IC50 was in the range of 0.5 to 1 µM.

Molecule `CNC(=O)c1cnc(Nc2ccccc2C)c(NC(=O)c2ccc3cnccc3c2)c1` [I-648] registered an IC50 of 1 to 10 µM.

Take `Cc1ccccc1Nc1ncc(C(=O)NCC2CCC(F)(F)C2)cc1NC(=O)c1csc2ccccc12` (stereo not drawn) [I-531]: the IC50 lay in the range of 10 to 100 µM.
